From PubChem BioAssay (NCI) come the findings set out here.

Among the test systems are SW-620 colon; SK-MEL-2 melanoma; RPMI-8226 leukemia; HOP-92 NSCLC; A549 NSCLC; LOX IMVI melanoma; OVCAR-5 ovarian; 786-0 renal; BT-549 breast; MOLT-4 leukemia.
Experiment in all cases: NCI-60 cell line screen, 48 h

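Five compound concentrations were applied to cells in 96-well plates for 48 hours; endpoints were derived by simple linear interpolation of the resulting dose-response curve. Here, GI50 denotes the concentration required for 50% inhibition of growth. TGI: concentration producing complete growth inhibition.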 Some results are limits rather than exact numbers.

Regarding `O=C(O)C1CC(O)CN1` (centres undefined), the TGI with SW-620 colon, in the assay on SK-MEL-2 melanoma, in the assay with RPMI-8226 leukemia, with HOP-92 NSCLC, in the assay on A549 NSCLC and in the assay on LOX IMVI melanoma was greater than 100 µM throughout. The TGI in the assay on OVCAR-5 ovarian, with 786-0 renal, in the assay with BT-549 breast and in the assay on MOLT-4 leukemia was greater than 100 µM throughout.

As to `Cc1cnc(C(=O)NNc2nc3sc4c(c3c(=O)n2C)C(C)CCC4)cn1` (centres undefined), the GI50 in the assay with SW-620 colon is 0.408 µM; with SK-MEL-2 melanoma, 1.02 µM; with RPMI-8226 leukemia, 0.357 µM; in the assay with HOP-92 NSCLC, 0.724 µM; in the assay with A549 NSCLC, 0.371 µM; in the assay with LOX IMVI melanoma, 0.304 µM. Further, the GI50 is 0.491 µM in the assay on OVCAR-5 ovarian, 0.511 µM in the assay with 786-0 renal, 1.03 µM in the assay on BT-549 breast and 0.346 µM in the assay on MOLT-4 leukemia. Moreover, the TGI in the assay with SW-620 colon was 6.66 µM; in the assay on SK-MEL-2 melanoma, 8.88 µM; in the assay on RPMI-8226 leukemia, greater than 20 µM; in the assay with HOP-92 NSCLC it was 4.57 µM; with A549 NSCLC, 4.69 µM; with LOX IMVI melanoma it was 1.75 µM. In addition, the TGI with OVCAR-5 ovarian is 7.4 µM; in the assay on 786-0 renal it was 5.52 µM; in the assay with BT-549 breast, 14 µM.

Turning to `O=C1C(Cl)=C(NCc2ccco2)C(=O)c2ccccc21`, the GI50 in the assay with SW-620 colon was 18.3 µM; in the assay on SK-MEL-2 melanoma, 35 µM; in the assay with RPMI-8226 leukemia, 10.2 µM; with HOP-92 NSCLC it was 23.2 µM; in the assay with A549 NSCLC it was 7.61 µM; in the assay with LOX IMVI melanoma it was 7.1 µM. Also, the GI50 in the assay on OVCAR-5 ovarian was 33.8 µM; in the assay with 786-0 renal, 29 µM; with BT-549 breast, 22 µM; with MOLT-4 leukemia it was 52.1 µM. Moreover, the TGI with SW-620 colon was greater than 100 µM; with SK-MEL-2 melanoma, greater than 100 µM; in the assay with RPMI-8226 leukemia, greater than 100 µM; with HOP-92 NSCLC it was 62.2 µM; in the assay on A549 NSCLC, 31.1 µM; in the assay on LOX IMVI melanoma, 72.7 µM. Further, the TGI with OVCAR-5 ovarian is greater than 65.1 µM; with 786-0 renal, 72.3 µM; in the assay on BT-549 breast it was 50.7 µM; in the assay with MOLT-4 leukemia it was greater than 100 µM.

As to `Cc1cccc(NC(=O)c2cccc([N+](=O)[O-])c2O)c1C`, the TGI was greater than 100 µM in the assay on SW-620 colon; 46.9 µM in the assay on SK-MEL-2 melanoma; greater than 87.3 µM with RPMI-8226 leukemia; 49.7 µM with HOP-92 NSCLC; greater than 100 µM in the assay with A549 NSCLC; greater than 72.8 µM in the assay with LOX IMVI melanoma. Moreover, the TGI is greater than 89.2 µM in the assay on OVCAR-5 ovarian, greater than 100 µM with 786-0 renal, greater than 100 µM with BT-549 breast and greater than 92.7 µM in the assay with MOLT-4 leukemia.

As to `CCNC(=O)O[C@H]1CN[C@H](C#Cc2cc3ncnc(Nc4ccc(OCc5cccc(F)c5)c(Cl)c4)c3s2)C1`, the GI50 in the assay with SW-620 colon was 12 µM; in the assay with SK-MEL-2 melanoma, 6.1 µM; in the assay on RPMI-8226 leukemia, 5.41 µM; with HOP-92 NSCLC, 0.83 µM; with A549 NSCLC it was 5.29 µM; in the assay with LOX IMVI melanoma, 8.12 µM. The GI50 is 8.98 µM in the assay with OVCAR-5 ovarian, 5.69 µM in the assay with 786-0 renal, 3.89 µM in the assay on BT-549 breast and 4.58 µM in the assay with MOLT-4 leukemia. Also, the TGI was greater than 25 µM in the assay on SW-620 colon; 24.9 µM with SK-MEL-2 melanoma; greater than 23.4 µM in the assay on RPMI-8226 leukemia; 11.4 µM in the assay with HOP-92 NSCLC; greater than 25 µM in the assay on A549 NSCLC; greater than 25 µM in the assay with LOX IMVI melanoma. In addition, the TGI with OVCAR-5 ovarian is greater than 25 µM; with 786-0 renal it was greater than 16.6 µM; in the assay with BT-549 breast, 9.38 µM; with MOLT-4 leukemia, greater than 25 µM.

Turning to `O=C1C(=O)c2cccnc2-c2ncccc21`, the GI50 in the assay on SW-620 colon was 0.072 µM; in the assay with SK-MEL-2 melanoma, 0.71 µM; in the assay with RPMI-8226 leukemia, 0.0459 µM; with HOP-92 NSCLC, 0.175 µM; in the assay with A549 NSCLC, 1.04 µM; with LOX IMVI melanoma, 0.06 µM. In addition, the GI50 was 0.328 µM in the assay with OVCAR-5 ovarian, 1.22 µM in the assay with 786-0 renal, 0.242 µM with BT-549 breast and 0.171 µM with MOLT-4 leukemia. Also, the TGI was found to be 1.12 µM with SW-620 colon; 2.35 µM in the assay on SK-MEL-2 melanoma; 0.399 µM in the assay with RPMI-8226 leukemia; 0.618 µM in the assay on HOP-92 NSCLC; 2.8 µM in the assay with A549 NSCLC; 0.36 µM with LOX IMVI melanoma. The TGI came out at 1.29 µM in the assay with OVCAR-5 ovarian, 2.5 µM in the assay on 786-0 renal, 1.19 µM in the assay on BT-549 breast and 0.509 µM in the assay with MOLT-4 leukemia.

For the molecule `C=C1CC2(OC1=O)C(=O)Nc1ccccc12` (centres undefined), the GI50 is 1.38 µM with SW-620 colon; 13.4 µM in the assay on SK-MEL-2 melanoma; 1.8 µM with RPMI-8226 leukemia; 1.28 µM with HOP-92 NSCLC; 12.9 µM in the assay with A549 NSCLC; 1.56 µM in the assay on LOX IMVI melanoma. For the same molecule, the GI50 in the assay with OVCAR-5 ovarian is 5.83 µM; with 786-0 renal it was 2.39 µM; with BT-549 breast, 4.24 µM; in the assay on MOLT-4 leukemia, 2 µM. The TGI in the assay on SW-620 colon was found to be 3.22 µM; with SK-MEL-2 melanoma, 30 µM; in the assay with RPMI-8226 leukemia it was 5.94 µM; with HOP-92 NSCLC, 2.75 µM; in the assay with A549 NSCLC, 34.3 µM; with LOX IMVI melanoma, 3.03 µM. The TGI came to 19.4 µM with OVCAR-5 ovarian, 6.64 µM with 786-0 renal, 17.1 µM with BT-549 breast and 5.98 µM in the assay on MOLT-4 leukemia.

`COc1cc2c(cc1OC)C13CCN4CC5CCOC6CC(=O)N2C1C6C5CC43` (centres undefined): the TGI with SW-620 colon, with SK-MEL-2 melanoma, with RPMI-8226 leukemia, in the assay with HOP-92 NSCLC, in the assay with A549 NSCLC and in the assay with LOX IMVI melanoma was greater than 100 µM in each case. In addition, the TGI in the assay with OVCAR-5 ovarian, in the assay on 786-0 renal, with BT-549 breast and with MOLT-4 leukemia was greater than 100 µM each time.

Take `CN(C)CCNC(=O)c1ccc(NC(=O)c2nc([N+](=O)[O-])cn2C)cc1`: the TGI with SW-620 colon, in the assay with SK-MEL-2 melanoma, in the assay with RPMI-8226 leukemia, in the assay with HOP-92 NSCLC, in the assay with A549 NSCLC and with LOX IMVI melanoma was greater than 100 µM throughout. The TGI in the assay on OVCAR-5 ovarian, in the assay on 786-0 renal, in the assay with BT-549 breast and in the assay on MOLT-4 leukemia was greater than 100 µM throughout.
